Data set [1] in a line: Stability of 9NC at room temperature, activity determined by HPLC. In kind it is physicochemical. The note with it: left at room temperature (25° C.) for 2 months. As to the method:
9-nitro-20(S)-camptothecin (9NC) was encapsulated in oral dosage of gelules containing 1 mg 9NC by a registered pharmacist. When 9NC is left at room temperature (25° C.) for 2 months, the loss of activity is minimal and has been estimated to be less than 5%+4.6%. Determination of activity has been done by HPLC. The gelules are preferably stored in freezers.

The subject of another data set is CMML. Briefly: Clinical treatment of patients with CMML with oral 9NC gelules. In kind it is in vivo, human. The text has this:
(§1) Twenty five patients with hematologic disorders were admitted for the treatment with 9NC. Among them, 9 patients had Philadelphia chromosome (Ph)-negative bcr/abl-negative CML; 8 patients had Philadelphia chromosome (Ph)-positive CML (6 in chronic phase and 2 in accelerated phase); 7 patients had CMML; and one had MDS (RAEB, refractory anemia with excess blasts). Median age of patients was 65 years, ranging from age 29 to age 77. Median white blood cell (WBC) counts was 25.2×10^9/L (range: 4.5-76×10^9/L); and median platelet count was 223×10^9/L (range: 23-1042×10^9/L). Among the patients for the treatment, 14 patients had splenomegaly, with median of 10.5 cms below costal margin (range: 1-13 cms). The 8 patients with Ph-positive CML were previously treated with interferon (IFN). Except for 5 patients, 12 other patients were also previously treated with IFN. Prior to the treatment of the present invention, the patients were off chemotherapy using other anticancer drugs for 2 weeks and recovered from toxicity of that chemotherapy.
(§2) The dosing schedule was designed as the following. The drug product, 9NC gelules, are orally administered into patients for 5 consecutive days every week. Four weeks of treatment with 9NC oral dosage defines one course of treatment. Courses are repeated every 4-6 weeks, depending on patient response and recovery of WBC and platelet counts. The total daily 9NC dose is given in 2 equal divided doses (e.g. 8 a.m. and 8 p.m.).
(§3) The dose of treatment with 9NC was designed to be modified at 5 dose levels according to myelosuppression and extramedullary toxicity. The starting dose schedule at level 0 is 2.0 mg/m^2 9NC orally daily, 5 days every week. Dose level +1 is 2.5 mg/m^2 9NC orally daily, 5 days every week. Dose level +2 is 3.0 mg/m^2 9NC orally daily, 5 days every week. Dose level −1 is 1.5 mg/m^2 9NC orally daily, 5 days every week. Dose level −2 is 1.5 mg/m^2 9NC orally daily, 4 days every week.
(§4) During the course of treatment, if there is no response to 9NC and the patient's hematologic toxicity is less than grade II, the dose level is increase by 1 level. If there is no response to 9NC and the patient's hematologic toxicity is at grade II, the dose level stays at the same level. If there is response to 9NC and the patient's hematologic toxicity is at grade III or IV, the dose level is decreased by 1 level. If there is no response to 9NC and the patient's hematologic toxicity is at grade III or IV, the patient is off the treatment with 9NC.
If low hematologic counts is due to myelosuppression, not disease, subsequent courses can be delayed until WBC >2.0×10^9/L and platelets >80×10^9/L. If low counts are attributed to persistent disease, subsequent courses are started regardless of the counts. […]

Another data set deals with Ph-positive CML. Briefly: Clinical treatment of patients with Ph-positive CML with oral 9NC gelules. The note with it: of 8 patients. It counts as in vivo, human.
From the text: as §1, §2
The dose of treatment with 9NC was designed to be modified at 5 dose levels according to myelosuppression and extramedullary toxicity. The starting dose schedule at level 0 is 2.0 mg/m^2 9NC orally daily, 5 days every week. Dose level +1 is 2.5 mg/m^2 9NC orally daily, 5 days every week. Dose level +2 is 3.0 mg/m^2 9NC orally daily, 5 days every week. Dose level −1 is 1.5 mg/m^2 9NC orally daily, 5 days every week. Dose level −2 is 1.5 mg/m^2 9NC orally daily, 4 days every week. […]

In data set [2] the test system is Ph-negative bcr/abl-negative CML. The data set can be described thus: Clinical treatment of patients with Ph-negative bcr/abl-negative CML with oral 9NC gelules. In kind it is in vivo, human.
From the text: as §1, §2, §3, §4
If low hematologic counts is due to myelosuppression, not disease, subsequent courses can be delayed until WBC >2.0×10^9/L and platelets >80×10^9/L. If low counts are attributed to persistent disease, subsequent courses are started regardless of the counts.
The criteria for response to patients with CML are as follows.
Complete hematologic remission (CHR): Normalization for at least 4 weeks of the bone marrow (less than 5% blasts) and peripheral blood with WBC <10×10^9/L and no peripheral blasts, promyelocytes or myelocytes. This is in addition to disappearance of all signs and symptoms of the disease.
Partial hematologic remission (PHR): CHR except for persistence of immature cells (myelocytes, metamyelocytes), or splenomegaly <50% of pretreatment, or thrombocytosis >450×10^9/L but <50% of pretreatment.
Gelules of 9NC were orally administrated into the 9 patients with Ph-negative bcr/abl-negative CML. The starting dose was 2 mg/m^2 daily for 5 days every week. Doses were adjusted according to myelosuppression and extramedullary toxicity as described above. […] Thus, the objective response (OR) was 6/9.

In the next data set the test system is dogs. The data set can be described thus: Toxicology studies in dogs. It counts as in vivo.
The next data set deals with mice. Briefly: Toxicology studies in mice. In kind it is in vivo.
In another data set the test system is MDS of the RAEB type. Briefly: Clinical treatment of patient with MDS (RAEB type) with oral 9NC gelules. It counts as in vivo, human. As to conditions: one patient, starting dose 2 mg/m^2 daily for 5 days every week.
From the text: as §1
The dosing schedule was designed as the following. The drug product, 9NC gelules, are orally administered into patients for 5 consecutive days every week. Four weeks of treatment with 9NC oral dosage defines one course of treatment. Courses are repeated every 4-6 weeks, depending on patient response and recovery of WBC and platelet counts. […]

Setting [3] is: of 9 patients, oral, starting dose 2 mg/m^2 daily for 5 days every week.

SMILES strings stand for the structures.

The results in this text go back to patent US20020131997A1, “Method for treating hematologic disorders with water insoluble 20 (S)-camptothecin” (priority 2000, published 2002).

Consider `CC[C@@]1(O)C(=O)OCc2c1cc1n(c2=O)Cc2cc3c([N+](=O)[O-])cccc3nc2-1` [9NC, 9-nitro-20(S)-camptothecin], for which the loss of activity entry in data set [1] is “less than 5%+4.6%”. Besides, in the data set with CMML (of 7 patients), the “patients resistant to the treatment” value was 1 patient and the “patients with hematologic improvement in WBC or splenomegaly” value came out at 4 patients. Besides, in the data set with CMML (of 7 patients, oral, starting dose 2 mg/m^2 daily for 5 days every week), the “patients with partial remission” value is 2 patients. For the same compound, the “objective response (OR)” value in the data set with CMML (responders/patients) is listed as 6/7. Further, in the data set with Ph-positive CML, the “patients who did not show response to the treatment” value is reported as 6 patients. Further, the “patients with complete response hematologically and cytogenetically” value with Ph-positive CML (oral, starting dose 2 mg/m^2 daily for 5 days every week) stood at 1 patient. For the same compound, in the data set on Ph-positive CML (patient in accelerated phase), the “patients with minor spleen response” value was determined as 1 patient. The spleen response result in data set [2] (in all 8 patients with splenomegaly) was “at least minor spleen response”. For the same compound, in data set [2] (setting [3]), the “patients resistant to the treatment” value is reported as 2 patients, the patients stable came out at 1 patient, the “patients with complete remission” value is reported as 2 patients and the “patients with partial remission” value amounted to 4 patients. Moreover, in data set [2] (responders/patients, oral, starting dose 2 mg/m^2 daily for 5 days every week), the “objective response (OR)” value is 6/9. Moreover, in the data set on dogs, the primary toxicity entry is on record as “intestinal”. For the same compound, the tolerability result with dogs (1.0 mg/kg/day, administered for over 2 months) is given as “well tolerated”. Also, the primary toxicity result with mice is “intestinal”. Also, the “response by MDS criteria” value with MDS of the RAEB type is listed as “complete remission”.
